These are literature values, as cited in patent US20100209480A1, “GALENICAL FORMULATIONS OF ORGANIC COMPOUNDS” (priority 2007, published 2010).

For this data set the following is noted: drug substance.

`COCCCOc1cc(C[C@@H](C[C@H](N)[C@@H](O)C[C@H](C(=O)NCC(C)(C)C(N)=O)C(C)C)C(C)C)ccc1OC` [Aliskiren, 2(S),4(S),5(S),7(S)—N-(3-amino-2,2-dimethyl-3-oxopropyl)-2,7-di(1-methylethyl)-4-hydroxy-5-amino-8-[4-methoxy-3-(3-methoxy-propoxy)phenyl]-octanamide]: the Hygroscopicity result is “highly hygroscopic”.
